Test results: US9956199B2, “Chromane-like cyclic prenylflavonoids for the medical intervention in neurological disorders” (priority 2011, dated 2018)
“Also recorded” adds a separate entry of the source.

Assays:
[1] = tested on: promoter of the neuronal precursor specific gene doublecortin (DCX); experiment: DCX promoter firefly-luciferase assay in primary fetal mouse brain derived (MEF) cells; format: cell-based; settings: for stimulatory effect on the DCX promoter activity (FF/R relative to control): DCX promoter-luciferase transfected MEF cells, stimulated three days; for effect on DCX promoter induction: 10 μM, MEF cells, three days
Method: Primary mouse embryonic day 16 forebrain (MEF) cultures were prepared as follows. Pregnant NMRI mice (Charles River Laboratories, Sulzfeld, Germany) were sacrificed and the uteri promptly removed and immersed in ice-cold Dulbecco's phosphate buffered saline solution—DPBS (PAA, Pasching, Austria). Eight embryonic day (E) 16 embryos were released from the uteri; forebrains were taken out, separated from surrounding tissues and mechanically dissociated using a razor blade. Subsequently the dissociated cells were collected by 5 min centrifugation at 120×g. The pellet was resuspended in 10 ml PPD-solution containing 0.01% papain (Worthington, England), 0.1% Dispasell (Roche, Basel, Switzerland), 0.01% DNasel (Worthington, England), 12.4 mM MgSO4 dissolved in HBSS w/o Ca/Mg (PAA, Pasching, Austria). The cell suspension was incubated at 37° C. and triturated every ten minutes for three times. The cell suspension was then centrifuged at 120×g for 5 minutes and washed three times in Neurobasal medium (Gibco BRL, Germany) supplemented with 2% (v/v) B27 (Gibco BRL, Karlsruhe), 2 mM L-glutamine, 100 μg/ml Penicillin/Streptomycin (PAN Biotech GmbH, Aidenbach, Germany). Finally, the cell preparation was resuspended in 12 ml Neurobasal medium supplemented with B27 (Gibco BRL, Karlsruhe), 2 mM L-glutamine, 100 μg/ml Penicillin/Streptomycin (PAN Biotech GmbH, Aidenbach, Germany), 20 ng/ml Epidermal Growth Factor—rhEGF, 20 ng/ml Fibroblast Growth Factor—rhFGF (R&D Systems, Wiesbaden-Nordenstadt, Germany) and 2 μg/ml Heparin (Sigma-Aldrich, Taufkirchen, Germany) (NB plus all), seeded in one T75 flask (TPP, Switzerland) and maintained in a humidified atmosphere at 37° C. and 5% CO2. […] On this day (day 2), half of the medium was refreshed and on day 4 cells were passaged. To passage the cells, the culture medium containing the floating neurospheres was collected in a 15 ml tube (Corning, Lowell, USA) and centrifuged at 120×g for 5 min. For dissociation, the pellet was resuspended in 500 μl Accutase (PAA, Pasching, Austria) and triturated using a 1 ml pipette. The cell suspension was incubated at 37° C. for 10 min, and then, 10 ml media were added. Cell number was determined by Trypan blue exclusion.
Luciferase assays were performed using a noncommercial dual luciferase enzyme assay system (Dyer et al., 2000, Anal Biochem). In this system, a co-transfection with pDCX-Luci and a control vector driving Renilla-luciferase under the CMV promoter was performed. The two different luciferases have different specific substrates and, therefore, the DCX regulatory region driven firefly luciferase activity can be distinguished from CMV driven Renilla-luciferase. For analysis, the firefly luciferase activity was normalized against the CMV driven Renilla-luciferase. For each transfection reaction, a volume containing two million cells was transferred into a 15 ml tube (Corning, Lowell, USA), centrifuged at 120×g for 5 min to pellet the cells and resuspended in 100 μl Amaxa Mouse Neural Stem Cell Nucleofector Kit (Lonza, Kln, Germany). Then, pDCX-Luci (Karl, 2005) and pRL3 (Promega, Mannheim, Germany) (5 μg each) were added and the entire reaction mix was transferred into an Amaxa transfection cuvette. Transfection was done using the A-033 program in the Amaxa Nucleofector II (Lonza, Kln, Germany). Transfected cells were then pipetted into 20 ml of DMEM knockout medium (Gibco BRL, Germany) containing 20% serum replacement supplement (PAN Biotech GmbH, Aidenbach, Germany), 2 mM L-glutamine (PAN Biotech GmbH, Aidenbach, Germany) and 100 μg/ml Penicillin/Streptomycin (PAN Biotech GmbH, Aidenbach, Germany) (DMEM-KO plus supplements) in a 50 ml tube (Corning, Lowell, USA). From this resulting cell suspension, 200 μl per well were plated in Poly-Ornithine/Laminin coated 96-well-luciferase plates (Wimmer & Macho, Wels, Austria) in a cell density of 20.000 cells per well, as described herein below.

MEF E16 cells = experiment: immunocytochemical staining for DCX and Map2ab in MEF cultures (neuronal differentiation); format: cell-based, mouse; settings: Neurobasal plus 1% FCS, 10 μM, 7 days; for number of DCX/Map2ab double positive cells: FIG. 3B
Method: Following the results from the Luciferase assay described in Example 17, the inventors examined the ability of compounds according to the invention and reference compounds to promote differentiation of MEF E16 cells, using immunocytochemical staining with DCX and Map2ab antibodies.
Compound 1a at 10 and 100 μM was analyzed for its effect on the expression of the neuronal specific markers DCX and Map2ab using primary fetal mouse brain derived cells stimulated in DMEM-KO media.
Mouse embryonic day 16 forebrain cells were prepared as described in Example 17. Before seeding the cells, glass-coverslips were coated and prepared. Glass-coverslips (13 mm) (Menzel GmbH, Braunschweig, Germany) were incubated in 1 M HCl at 65° C. overnight and stored in isopropanol until further use. Coverslips were put into 24-well test plates and air-dried. Subsequently coverslips were incubated for 1 h with 100 μg/ml Poly-L-ornithin solution at 37° C. After washing three times with sterile water coverslips were incubated with 5 μg/ml Laminin solution for 2 h. Immediately after removal of the Laminin solution cells were seeded (40.000 cells/well) in DMEM-KO plus supplement or in NB-B27 plus 1% FCS medium. One day later, cells had attached to the substrate. Cells were stimulated with the above-mentioned substances (in DMEM-KO plus supplement medium: 10 μM and 100 μM; in NB-B27 plus 1% FCS medium: 10 μM) for 3 or 7 days. In the 7 day group, medium including the substances was replaced after three days. Cultures were maintained at 37° C. in a humidified incubator with 5% CO2.
Cells were fixed with phosphate-buffered 4% paraformaldehyde (Sigma-Aldrich, Taufkirchen, Germany). […] The specimens were incubated overnight at 4° C. with the primary antibodies at the following dilutions in FSGB: rabbit anti Doublecortin (DCX) 1:500 (NEB, Frankfurt, Germany) and mouse anti-Map 2a+2b 1:400 (Sigma-Aldrich, Taufkirchen, Germany). After washing three times with FSGB, cells were incubated with the species-specific secondary antibodies, which were conjugated to fluorochromes, for 2 hours in the dark at room temperature. To remove unbound secondary antibodies, cells were washed again with PBS. Nuclear counterstaining was performed with 4′,6′-diamidino-2-phenylindole dihydrochloride hydrate (DAPI) at […] (Sigma Aldrich, Taufkirchen, Germany). Finally, cells were washed again three times with PBS and mounted on microscope slides using Prolong Antifade reagent (Invitrogen, Oreg., USA).
The immunostainings were examined using Olympus IX81 inverted research microscope and the software Volocity 5.3.1. To quantify the number of cells, five indiscriminately chosen visual fields per coverslip were selected under a focus of 40 times. The total number of cells (DAPI positive cells), the number of DCX positive, Map2ab positive, and DCX/Map2ab double positive cells was determined.

| SMILES | stimulatory effect on the DCX promoter activity (FF/R relative to control) [1] | number of DCX/Map2ab double positive cells (MEF E16 cells) | effect on DCX promoter induction [1] | number of DCX positive cells (MEF E16 cells; FIG. 3A) |
| --- | --- | --- | --- | --- |
| COc1cc(O)c(CC=C(C)C)c2c1C(=O)CC(c1ccc(O)cc1)O2 (centres unmarked) [isoxanthohumol, 7-hydroxy-2-(4-hydroxyphenyl)-5-methoxy-8-(3-methylbut-2-en-1-yl)chroman-4-one, reference compound] | did not have any significant stimulatory effect | Good results |  |  |
| CC1(C)C=Cc2c(cc3c(c2O)C(=O)CC(c2ccc(O)cc2)O3)O1 (centres unmarked) [Compound 2a, 5-Hydroxy-2-(4-hydroxy-phenyl)-8,8-dimethyl-2,3-dihydro-8H-pyrano[3,2-g]chromen-4-one] | stimulatory effect on the DCX promoter activity was also observed |  | good results |  |
| COc1cc2c(c(O)c1C(=O)/C=C/c1ccc3c(c1)OCO3)C=CC(C)(C)O2 [Compound 1f, (2E)-3-(benzo[d][1,3]dioxol-6-yl)-1-(5-hydroxy-7-methoxy-2,2-dimethyl-2H-chromen-6-yl)prop-2-en-1-one] | significantly and strongly induce; also recorded: very strong and significant stimulatory effect |  |  |  |
| COc1cc2c(c(O)c1C(C)=O)C=CC(C)(C)O2 [ENDF4, 1-(5-hydroxy-7-methoxy-2,2-dimethyl-2H-chromen-6-yl)-ethanone] | did not have any significant stimulatory effect | Good results; also recorded: increased slightly more |  | strongly enhanced the number of DCX positive cells |
| CC(C)=CCc1c(O)cc(O)c2c1OC(c1ccc(O)cc1)CC2=O (centres unmarked) [8-prenylnaringenin, 5,7-dihydroxy-2-(4-hydroxyphenyl)-8-(3-methylbut2-en-1yl)chroman-4-one] |  | Good results |  |  |
| COc1cc2c(c(O)c1C(=O)/C=C/c1ccc(O)cc1)C=CC(C)(CCC=C(C)C)O2 (centres unmarked) [Compound 1g, (2E)-1-(5-hydroxy-7-methoxy-2-methyl-2-(4-methylpent-3-enyl)-2H-chromen-6-yl)-3-(4-hydroxyphenyl)prop-2-en-1-one] |  |  | good results |  |
| Cc1c(C)c2c(c(C)c1O)CCC(C)(C)O2 [chromanol, 2,2,5,7,8-Pentamethyl-6-chromanol, reference compound] | did not have any significant stimulatory effect | marginally increase |  |  |
| Cc1c(C)c2c(c(C)c1O)CCC(C)(CCCC(C)CCCC(C)CCCC(C)C)O2 (racemic) [tocopherol, 2,5,7,8-tetramethyl-2-(4,8,12 trimethyltridecyl)chroman-6-ol] |  | marginally increase |  |  |
| COc1cc2c(c(O)c1C(=O)/C=C/c1ccc(O)c(O)c1)C=CC(C)(C)O2 [Compound 1e, (2E)-1-(5-Hydroxy-7-methoxy-2,2-dimethyl-2H-chromen-6-yl)-3-(3,4-dihydroxyphenyl)prop-2-en-1-one] | significantly and strongly induce; also recorded: very strong and significant stimulatory effect |  |  |  |
| COc1cc2c(c(O)c1C(=O)CCc1ccc(O)cc1)CCC(C)(C)O2 [Compound 1c, 1-(5-hydroxy-7-methoxy-2,2-dimethylchroman-6-yl)-3-(4-hydroxyphenyl)propan-1-one] | significantly and strongly induce; also recorded: very strong and significant stimulatory effect |  |  |  |
| CC1(C)C=Cc2c(cc(O)c3c2OC(c2ccc(O)cc2)CC3=O)O1 (centres unmarked) [Compound 3b, 5-Hydroxy-2-(4-hydroxy-phenyl)-8,8-dimethyl-2,3-dihydro-8H-pyrano[2,3-f]chromen-4-one] |  |  | good results |  |
| CC(C)=CCc1c(O)cc2c(c1O)C(=O)CC(c1ccc(O)cc1)O2 (centres unmarked) [6-prenylnaringenin, 5,7-dihydroxy-2-(4-hydroxyphenyl)-6-(3-methylbut2-en-1yl)chroman-4-one] |  | Good results |  |  |
